Laboratory results reported in BindingDB's records for PubMed 3010074 (Warner-Lambert/Parke-Davis Pharmaceutical Research, 1986).

target: Adenosine receptor A2a (Homo sapiens, UniProt P29274)
Sequence (P29274 whole entry): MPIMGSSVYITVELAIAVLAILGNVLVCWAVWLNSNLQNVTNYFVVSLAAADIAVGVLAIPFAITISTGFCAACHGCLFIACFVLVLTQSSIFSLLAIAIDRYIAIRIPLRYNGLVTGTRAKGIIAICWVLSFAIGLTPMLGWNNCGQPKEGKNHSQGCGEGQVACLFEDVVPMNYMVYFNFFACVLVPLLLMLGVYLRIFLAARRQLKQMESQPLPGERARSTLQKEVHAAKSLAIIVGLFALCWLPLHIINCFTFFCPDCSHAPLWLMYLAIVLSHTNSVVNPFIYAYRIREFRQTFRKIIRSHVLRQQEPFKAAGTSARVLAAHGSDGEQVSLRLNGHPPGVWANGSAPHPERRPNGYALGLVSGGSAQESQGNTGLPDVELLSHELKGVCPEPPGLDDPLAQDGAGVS

**Q.** How did the Ki turn out when `Cn1c(=O)c2[nH]c(-c3ccc(N)cc3)nc2n(C)c1=O` was run?
**A.** 391 nM

**Q.** With `Cn1c(=O)c2[nH]c(-c3ccc(Cl)cc3)nc2n(C)c1=O` as the molecule, how does the Ki read?
**A.** 371 nM

**Q.** How did the Ki turn out when `CCCn1c(=O)c2nc(-c3ccc(N)cc3N)[nH]c2n(CCC)c1=O` was run?
**A.** 214 nM

**Q.** How did the Ki turn out when `CCCc1nc2c([nH]1)c(=O)n(C)c(=O)n2C` was run?
**A.** > 10000 nM

**Q.** How did the Ki turn out when `O=c1nc2[nH]c3ccccc3nc-2c(=O)[nH]1` was run?
**A.** 2720 nM

**Q.** `Cn1c(=O)[nH]c2nc[nH]c2c1=O` [1-Methyl-3,9-dihydro-purine-2,6-dione(1-methylxanthine)] was tested. Which Ki did it give?
**A.** > 10000 nM

**Q.** With `CC(C)Cn1c(=O)n(C)c(=O)c2[nH]cnc21` [1-methyl-3-(2-methylpropyl)-2,3,6,7-tetrahydro-1H-purine-2,6-dione] as the molecule, how does the Ki read?
**A.** > 10000 nM

**Q.** How did the Ki turn out when `Cn1c(=O)c2[nH]c(-c3ccc(S(=O)(=O)O)cc3)nc2n(C)c1=O` [4-(1,3-Dimethyl-2,6-dioxo-2,3,6,7-tetrahydro-1H-purin-8-yl)-benzenesulfonic acid] was run?
**A.** > 10000 nM

**Q.** Which Ki does the source give for `Cn1c(=O)c2c(ncn2CCCl)n(C)c1=O` [7-(2-Chloroethyl)theophylline] here?
**A.** > 10000 nM

**Q.** Which Ki does the source give for `Cn1c(=O)c2nc(-c3ccccc3N)[nH]c2n(C)c1=O` [8-(2-Aminophenyl)theophylline] here?
**A.** 1430 nM

**Q.** For `Cn1c(=O)c2[nH]c(-c3ccc(C(=O)O)cc3)nc2n(C)c1=O` [8-(4-Carboxyphenyl)theophylline], which Ki is on record?
**A.** 7260 nM

**Q.** With `Cn1c(=O)c2[nH]c(-c3ccc([N+](=O)[O-])cc3)nc2n(C)c1=O` [8-(4-Nitrophenyl)theophylline] as the molecule, how does the Ki read?
**A.** 2520 nM

**Q.** For `COc1ccc(-c2nc3c([nH]2)c(=O)n(C)c(=O)n3C)cc1` [8-(4-methoxyphenyl)-1,3-dimethyl-1H-purine-2,6(3H,7H)-dione], which Ki is on record?
**A.** 419 nM

**Q.** How did the Ki turn out when `Cn1c(=O)c2nc(-c3cccs3)[nH]c2n(C)c1=O` [CAS_267102] was run?
**A.** 1580 nM

**Q.** How did the Ki turn out when `CCCCNc1c(C(=O)OCC)c(C)nc2c1cnn2CC` [NSC_5522] was run?
**A.** 1560 nM

**Q.** How did the Ki turn out when `CCCCn1c(=O)c2c(ncn2C)n(C)c1=O` [NSC_70835] was run?
**A.** > 10000 nM

**Q.** With `CCCn1c(=O)c2[nH]c(-c3ccc(Cl)cc3N)nc2n(CCC)c1=O` [NSC_92411] as the molecule, how does the Ki read?
**A.** 91.9 nM

**Q.** With `CCn1c(=O)c2c(ncn2C)n(C)c1=O` [NSC_93219] as the molecule, how does the Ki read?
**A.** > 10000 nM

**Q.** `CCn1c(=O)c2nc[nH]c2n(CC)c1=O` [NSC_101420] was tested. Which Ki did it give?
**A.** > 10000 nM

**Q.** How did the Ki turn out when `CCCCNc1c(C(=O)OCC)cnc2c1cnn2CC` [ethyl 4-(butylamino)-1-ethyl-1H-pyrazolo[3,4-b]pyridine-5-carboxylate] was run?
**A.** 2240 nM

target: Adenosine receptor A2a (Rattus norvegicus, UniProt P30543)
Sequence (P30543 whole entry): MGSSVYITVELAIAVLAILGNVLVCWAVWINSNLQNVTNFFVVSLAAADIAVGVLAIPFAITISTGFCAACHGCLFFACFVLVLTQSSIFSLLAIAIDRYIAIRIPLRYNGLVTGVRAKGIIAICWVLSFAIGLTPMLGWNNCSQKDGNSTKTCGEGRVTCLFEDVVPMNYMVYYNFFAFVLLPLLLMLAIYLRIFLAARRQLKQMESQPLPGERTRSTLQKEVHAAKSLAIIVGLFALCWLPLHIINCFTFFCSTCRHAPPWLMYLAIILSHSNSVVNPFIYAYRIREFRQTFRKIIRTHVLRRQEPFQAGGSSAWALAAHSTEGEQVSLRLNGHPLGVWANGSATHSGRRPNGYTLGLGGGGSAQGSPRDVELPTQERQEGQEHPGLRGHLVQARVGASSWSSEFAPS

**Q.** Which Ki does the source give for `Nc1nc(NC2CCCC2)nc2c1ncn2[C@@H]1O[C@H](CO)[C@@H](O)[C@H]1O` here?
**A.** 462 nM

**Q.** `O=c1[nH]c2c(ncn2[C@@H]2O[C@H](CO)[C@@H](O)[C@H]2O)c2nccn12` [1,N6-Ehteno-2-oxoado] was tested. Which Ki did it give?
**A.** > 10000 nM

**Q.** `Cn1c(N)c2ncn([C@@H]3O[C@H](CO)[C@@H](O)[C@H]3O)c2nc1=O` [1-Methyl-2-oxoado] was tested. Which Ki did it give?
**A.** 3250 nM

**Q.** With `CNc1ncnc2c1ncn2[C@H]1C[C@H](O)[C@@H](CO)O1` [2'-Deoxy-N6-methylado] as the molecule, how does the Ki read?
**A.** > 10000 nM

**Q.** How did the Ki turn out when `COc1ccc(-c2nc(N)c3ncn([C@@H]4O[C@H](CO)[C@@H](O)[C@H]4O)c3n2)cc1` [2-(4-Methoxyphenyl)ado (CV-1674)] was run?
**A.** 605 nM

**Q.** With `CSC[C@H]1O[C@@H](n2cnc3c(N)nc(Cl)nc32)[C@H](O)[C@@H]1O` [2-Chloro-5'-methylthioado] as the molecule, how does the Ki read?
**A.** 1880 nM

**Q.** Which Ki does the source give for `Nc1ncnc2c1ncn2[C@@H]1O[C@H](CI)[C@@H](O)[C@H]1O` [5'-Deoxy-5'-iodoado] here?
**A.** 637 nM

**Q.** With `CC(=O)OCC1O[C@@H](n2cnc3c(N)ncnc32)[C@H](O)[C@@H]1O` (some centres undefined) [5'-O-Acetylado] as the molecule, how does the Ki read?
**A.** 4510 nM

**Q.** `Nc1ncnc2c1ncn2[C@@H]1O[C@H](CO[N+](=O)[O-])[C@@H](O)[C@H]1O` [5'-O-Nitroado] was tested. Which Ki did it give?
**A.** 335 nM

**Q.** How did the Ki turn out when `Nc1nccc2c1SCN2[C@@H]1O[C@H](CO)[C@@H](O)[C@H]1O` [7-Thia-9deazaado] was run?
**A.** > 10000 nM

**Q.** `CSC[C@H]1O[C@@H](n2cnc3c(N)ncnc32)[C@H](O)[C@@H]1O` [(2R,3R,4S,5S)-2-(6-aminopurin-9-yl)-5-(methylsulfanylmethyl)oxolane-3,4-diol] was tested. Which Ki did it give?
**A.** 1100 nM

**Q.** For `NC(=O)CCOC[C@H]1O[C@@H](n2cnc3c(N)ncnc32)[C@H](O)[C@@H]1O` [Ado-5'-(2-hydroxyethyl)carboxamide], which Ki is on record?
**A.** 57.5 nM

**Q.** Which Ki does the source give for `NC(=O)OC[C@H]1O[C@@H](n2cnc3c(N)ncnc32)[C@H](O)[C@@H]1O` [Ado-5'-carboxamide] here?
**A.** 120 nM

**Q.** `Nc1ncnc2c1ncn2[C@@H]1O[C@H](NC(=O)C2CCCCC2)[C@@H](O)[C@H]1O` [Ado-5'-cyclohexylcarboxamide] was tested. Which Ki did it give?
**A.** 4300 nM

**Q.** Which Ki does the source give for `Nc1ncnc2c1ncn2[C@@H]1O[C@H](CNC(=O)C2CC2)[C@@H](O)[C@H]1O` [Ado-5'-cyclopropylcarboxamide] here?
**A.** 13.4 nM

**Q.** How did the Ki turn out when `CCC(=O)OC[C@H]1O[C@@H](n2cnc3c(N)ncnc32)[C@H](O)[C@@H]1O` [Ado-5'-ethylcarboxylate] was run?
**A.** 387 nM

**Q.** With `Nc1nc(=O)[nH]c2c1ncn2[C@@H]1O[C@H](CO)[C@@H](O)[C@H]1O` [CAS_1818-71-9] as the molecule, how does the Ki read?
**A.** 331 nM

**Q.** `Nc1nccc2c1ncn2[C@@H]1O[C@H](CO)[C@@H](O)[C@H]1O` [CAS_6736-58-9] was tested. Which Ki did it give?
**A.** > 10000 nM

**Q.** Which Ki does the source give for `OC[C@H]1O[C@@H](n2cnc3c(NCc4ccccc4)ncnc32)[C@H](O)[C@@H]1O` [N6-benzylado] here?
**A.** 285 nM
